# Experimental data published in patent US8198299B2, “Cycloalkylidene and heterocycloalkylidene inhibitor compounds” (Gilead Sciences, Inc., priority 2008, dated 2012).
# Target: HDAC 1 (Homo sapiens, UniProt Q13547)
# Experiment: HDAC 1 inhibition assay with about 3-hour enzyme/compound preincubation (fluorophore/quencher peptide substrate)
# Format: biochemical
# Settings: 3-hour preincubation of enzyme and compound at room temperature; read-out: HDAC 1 inhibitory activity (IC50 [μM]) (3-hour preincubation)
# Protocol: HDAC inhibitory activity of the compound of Example 1 was measured by two types of assays in which HDAC 1 and 6 were used as a target molecule. The first assay was carried out without preincubation after addition of the enzyme. The test compound was suspended in and titrated in DMSO. It was then spotted into a 384-well test plate. The enzyme, HDAC 1 or 6, was diluted in assay buffer containing 25 mM Tris-HCl (pH 8.0), 137 mM NaCl, 2.7 mM KCl, and 0.01% Tween-20 and added to the pre-spotted compound. The peptide substrate containing a fluorophore/quencher pair was diluted in the same assay buffer and added to the compound/enzyme mix initiating the reaction. The reaction incubated at room temperature for about 45 minutes. A concentrated developer solution was diluted in the assay buffer, and added to the reaction. The reaction was incubated at room temperature for about 15 minutes and relative fluorescence was read on an instrument reader.
# The second assay is similar to the first assay described above, except that preincubation is carried out for about 3 hours after the enzyme is introduced. The test compound was suspended in, and titrated in DMSO. It was then spotted into a 384-well test plate. The enzyme, HDAC 1 or 6, was diluted in the same assay buffer as used in the previous assay and added to the pre-spotted compound. The enzyme/compound mix was incubated at room temperature for about 3 hours. The peptide substrate containing a fluorophore/quencher pair was diluted in the assay buffer and added to the compound/enzyme mix initiating the reaction. The reaction incubated at room temperature for 45 minutes. A concentrated developer solution was diluted in the assay buffer, and added to the reaction. The reaction was incubated at room temperature for about 15 minutes and relative fluorescence was read on an instrument reader.
# HDAC 1, sequence (Q13547 whole entry, species assumed): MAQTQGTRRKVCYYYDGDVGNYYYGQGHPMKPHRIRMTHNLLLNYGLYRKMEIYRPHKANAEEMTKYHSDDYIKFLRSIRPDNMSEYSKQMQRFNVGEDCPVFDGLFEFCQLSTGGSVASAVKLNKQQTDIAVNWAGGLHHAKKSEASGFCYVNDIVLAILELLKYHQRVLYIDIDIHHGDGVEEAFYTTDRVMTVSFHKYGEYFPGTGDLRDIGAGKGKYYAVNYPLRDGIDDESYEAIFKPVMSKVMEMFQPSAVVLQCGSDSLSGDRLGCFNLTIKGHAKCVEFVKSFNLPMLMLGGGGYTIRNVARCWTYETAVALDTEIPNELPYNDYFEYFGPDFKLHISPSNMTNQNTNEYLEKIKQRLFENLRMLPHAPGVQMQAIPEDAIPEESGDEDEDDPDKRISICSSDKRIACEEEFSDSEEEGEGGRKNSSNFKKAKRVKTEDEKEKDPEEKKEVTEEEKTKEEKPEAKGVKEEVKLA
row,Structure (SMILES),IC50 [µM]
1,"Nc1ccccc1NC(=O)c1ccc(C2(c3nc4c(s3)COCC4)CCOCC2)cc1 [Example 26, N-(2-aminophenyl)-4-(4-(6,7-dihydropyrano[4,3-d]thiazol-2-yl)tetrahydropyran-4-yl)benzamide]",0.017
2,"CN1CCc2nc(C3(c4ccc(C(=O)Nc5ccccc5N)cc4)CCOCC3)sc2C1 [Example 29, N-(2-aminophenyl)-4-(4-(5-methyl-4,5,6,7-tetrahydrothiazolo[5,4-c]pyridin-2-yl)tetrahydropyran-4-yl)benzamide]",0.032
3,"Nc1ccc(-c2cccs2)cc1NC(=O)c1ccc(C2(c3nnn[nH]3)CCOCC2)cc1 [Example 38, 4-(4-(1H-tetrazol-5-yl)tetrahydropyran-4-yl)-N-(2-amino-5-(thiophen-2-yl)phenyl)benzamide]",0.00311
4,"Nc1ccc(-c2ccc(F)cc2)cc1NC(=O)c1ccc(C2(c3nc4c(s3)COCC4)CC2)cc1 [Example 58, N-(4-amino-4′-fluorobiphenyl-3-yl)-4-(1-(6,7-dihydropyrano[4,3-d]thiazol-2-yl)cyclopropyl)benzamide]",0.0208
5,"CN1CCc2nc(C3(c4ccc(C(=O)Nc5cc(-c6cccs6)ccc5N)cc4)CCOCC3)sc2C1 [Example 21, N-(2-amino-5-(thiophen-2-yl)phenyl)-4-(4-(5-methyl-4,5,6,7-tetrahydrothiazolo[5,4-c]pyridin-2-yl)tetrahydropyran-4-yl)benzamide]",0.006
6,"Nc1ccc(-c2ccc(F)cc2)cc1NC(=O)c1ccc(C2(c3nccs3)CCOCC2)cc1 [Example 36, N-(4-amino-4′-fluorobiphenyl-3-yl)-4-(4-(thiazol-2-yl)tetrahydropyran-4-yl)benzamide]",0.0029
7,Nc1ccccc1NC(=O)c1ccc(C2(c3nccs3)CCOCC2)cc1 [Example 15],0.119
8,"Nc1ccc(-c2cccs2)cc1NC(=O)c1ccc(C2(c3ncc(-c4cccnc4)s3)CCOCC2)cc1 [Example 51, N-(2-amino-5-(thiophen-2-yl)phenyl)-4-(4-(5-(pyridin-3-yl)thiazol-2-yl)tetrahydropyran-4-yl)benzamide]",0.0039
9,"CC(C)[C@H](N)C(=O)N1CCc2nc(C3(c4ccc(C(=O)Nc5ccccc5N)cc4)CC3)sc2C1 [Example 17, (S)-4-(1-(5-(2-amino-3-methylbutanoyl)-4,5,6,7-tetrahydrothiazolo[5,4-c]pyridin-2-yl)cyclopropyl)-N-(2-aminophenyl)benzamide]",0.0982
10,"CN1CCN(c2ccc(-c3csc(C4(c5ccc(C(=O)NO)cc5)CCOCC4)n3)cn2)CC1 [Example 44, N-hydroxy-4-(4-(4-(6-(4-methylpiperazin-1-yl)pyridin-3-yl)thiazol-2-yl)tetrahydropyran-4-yl)benzamide]",0.0071
11,"CC(=O)c1sc(C2(c3ccc(C(=O)Nc4ccccc4N)cc3)CC2)nc1C [Example 3, 4-[1-(5-Acetyl-4-methyl-thiazol-2-yl)-cyclopropyl]-N-(2-amino-phenyl)-benzamide]",0.065
12,"Cc1csc(C2(c3ccc(C(=O)Nc4ccccc4N)cc3)CC2)n1 [Example 16, N-(2-aminophenyl)-4-(1-(4-methylthiazol-2-yl)cyclopropyl)benzamide]",0.0988
13,"Nc1ccccc1NC(=O)c1ccc(C2(c3nc(-c4ccc(Cl)nc4)cs3)CCOCC2)cc1 [Example 18, N-(2-aminophenyl)-4-(4-(4-(6-chloropyridin-3-yl)thiazol-2-yl)tetrahydropyran-4-yl)benzamide]",0.0139

# Continued by falling IC50, values first:
row,IC50 [µM],Structure (SMILES)
1,0.331,"Cc1nc(C2(c3ccc(C(=O)Nc4ccccc4N)cc3)CC2)sc1C(=O)N(C)C [Example 4, 2-(1-(4-(2-aminophenylcarbamoyl)phenyl)cyclopropyl)-N,N-4-trimethylthiazole-5-carboxamide]"
2,0.279,"CC(C)NC(=O)c1csc(C2(c3ccc(C(=O)Nc4ccccc4N)cc3)CC2)n1 [Example 10, 2-(1-(4-(2-aminophenylcarbamoyl)phenyl)cyclopropyl)-N-isopropylthiazole-4-carboxamide]"
3,0.037,"Nc1ccccc1NC(=O)c1ccc(C2(c3nc(-c4cccnc4)cs3)CCOCC2)cc1 [Example 8, N-(2-Amino-phenyl)-4-[4-(4-pyridin-3-yl-thiazol-2-yl)-tetrahydro-pyran-4-yl]-benzamide]"
4,0.0351,"O=C(NO)c1ccc(C2(c3nc(-c4cccnc4)cs3)CCOCC2)cc1 [Example 42, N-hydroxy-4-(4-(4-(pyridin-3-yl)thiazol-2-yl)tetrahydropyran-4-yl)benzamide]"
5,0.032,"Nc1ccc(F)cc1NC(=O)c1ccc(C2(c3nc(-c4cccnc4)cs3)CCOCC2)cc1 [Example 23, N-(2-amino-5-fluorophenyl)-4-(4-(4-(pyridin-3-yl)thiazol-2-yl)tetrahydropyran-4-yl)benzamide]"
6,0.0239,"Cc1nc2ccccn2c1-c1csc(C2(c3ccc(C(=O)Nc4ccccc4N)cc3)CC2)n1 [Example 1, N-(2-amino-phenyl)-4-{1-[4-(2-methyl-imidazo[1,2-a]pyridin-3-yl)-thiazol-2-yl]-cyclopropyl}-benzamide]"
7,0.00774,"Nc1ccc(F)cc1NC(=O)c1ccc(C2(c3nc(-c4cnccn4)cs3)CCOCC2)cc1 [Example 57, N-(2-amino-5-fluorophenyl)-4-(4-(4-(pyrazin-2-yl)thiazol-2-yl)tetrahydropyran-4-yl)benzamide]"
8,0.00625,"Nc1ccc(-c2ccc(F)cc2)cc1NC(=O)c1ccc(C2(c3nc(-c4cnccn4)cs3)CCOCC2)cc1 [Example 54, N-(4-amino-4′-fluorobiphenyl-3-yl)-4-(4-(4-(pyrazin-2-yl)thiazol-2-yl)tetrahydropyran-4-yl)benzamide]"
9,0.00616,"Nc1ccc(-c2ccc(Cl)s2)cc1NC(=O)c1ccc(C2(c3ccccn3)CCOCC2)cc1 [Example 60, N-(2-amino-5-(5-chlorothiophen-2-yl)phenyl)-4-(4-(pyridin-2-yl)tetrahydropyran-4-yl)benzamide]"
10,0.00333,"Nc1ccc(-c2ccc(F)cc2)cc1NC(=O)c1ccc(C2(c3nnn[nH]3)CCOCC2)cc1 [Example 39, 4-(4-(1H-tetrazol-5-yl)tetrahydropyran-4-yl)-N-(4-amino-4′-fluorobiphenyl-3-yl)benzamide]"
11,0.0033,"Nc1ccccc1NC(=O)c1ccc(C2(c3nc(-c4ccc(N5CCNCC5)nc4)cs3)CCOCC2)cc1 [Example 35, N-(2-aminophenyl)-4-(4-(4-(6-(piperazin-1-yl)pyridin-3-yl)thiazol-2-yl)tetrahydropyran-4-yl)benzamide]"
12,0.00294,"Nc1ccc(-c2ccc(F)cc2)cc1NC(=O)c1ccc(C2(c3nccs3)CC2)cc1 [Example 48, N-(4-amino-4′-fluorobiphenyl-3-yl)-4-(1-(thiazol-2-yl)cyclopropyl)benzamide]"
13,0.00209,"Cc1nc(C2(c3ccc(C(=O)Nc4cc(-c5ccc(F)cc5)ccc4N)cc3)CCOCC2)sc1C(C)O (stereo not drawn) [Example 61, N-(4-amino-4′-fluorobiphenyl-3-yl)-4-(4-(5-(1-hydroxyethyl)-4-methylthiazol-2-yl)tetrahydropyran-4-yl)benzamide]"
14,0.001,"Nc1ccc(-c2cccs2)cc1NC(=O)c1ccc(C2(c3nc(CN4CCCC4)cs3)CCOCC2)cc1 [Example 31, N-(2-amino-5-(thiophen-2-yl)phenyl)-4-(4-(4-(pyrrolidin-1-ylmethyl)thiazol-2-yl)tetrahydropyran-4-yl)benzamide]"
